How the values were obtained:
[1] = tested on: Wistar rats; assay: Novel object recognition test, subchronic PCP-induced cognitive impairment; assay type: in vivo, rat; settings: PCP 5 mg/kg twice daily for 7 days IP
Description: The total exploration time of two identical objects in the acquisition trial was measured manually and indicated as the mean±SEM (n=10). No statistical difference was found in the total exploration time among the different groups by one-way ANOVA (P=0.340).
(§1) NDI was calculated using the following equation: novel object interaction time/total interaction time×100(%). Data are represented as the mean±SEM (n=10). Significant difference from control group was indicated by ***P<0.001 (Student's t-test). Significant differences from PCP-treated group were indicated by ##P<0.01, #P<0.05 (Dunnett test). Significant difference from PCP-treated group were indicated by ††P<0.01 (Student's t-test).
Exploration time of each object in retention trial was measured manually and presented as the mean±SEM (n=10). Significant differences from familiar object interaction were indicated by ***P<0.001, **P<0.01 (paired t-test).
A novel object recognition test was conducted to investigate the effect of SP-624 on subchronic PCP-induced cognitive impairment in Wistar rats. Clozapine was used as a positive control.

[2] = tested on: Long-Evans rats; assay: Novel object recognition test, scopolamine-induced cognitive impairment; assay type: in vivo, rat; settings: scopolamine 0.1 mg/kg SC
Description: Total exploration time of two identical objects in the acquisition trial was measured manually and indicated as the mean±SEM (n=8). No statistical difference was found in the total exploration time among the different groups by one-way ANOVA (P=0.115).
as §1, with “(n=8).” for “(n=10).”, “scopolamine-treated vehicle” for “PCP-treated”, “##P<0.01” for “##P<0.01, #P<0.05”, “†††P<0.001” for “††P<0.01”
Exploration time of each object in retention trial was measured manually and presented as the mean±SEM (n=8). Significant differences from familiar object interaction were indicated by **P<0.01, *P<0.05 (paired t-test).
A novel object recognition test (which evaluates visual learning and memory) was conducted to investigate the effect of compound 1 on scopolamine-induced cognitive impairment in Long-Evans rats. Donepezil was used as a positive control. Scopolamine at 0.1 mg/kg SC reduced the novelty discrimination index (NDI) a measure of cognitive function (FIGS. 4-6).

Structure (SMILES) | NDI compared with sub-chronic vehicle treatment [1] | novelty discrimination index (NDI) [2]
c1ccc(C2(N3CCCCC3)CCCCC2)cc1 [PCP, reference compound] | significantly decreased | –
CN1[C@@H]2C[C@@H](OC(=O)[C@H](CO)c3ccccc3)C[C@H]1[C@@H]1O[C@@H]12 [Scopolamine, reference compound] | – | reduced

— US20260034103A1, “COMPOSITIONS AND METHODS FOR IMPROVING MEMORY AND COGNITION” (priority 2022, published 2026)
